Where two headings read alike, the source gives them in different places.
Assays:
Format in all cases: biochemical
Human Calpain 2/NS1 = target: T1, Human Calpain 2/NS1 (Homo sapiens, UniProt P17655); experiment: Calpain inhibition continuous fluorescence (FRET) assay, Human Calpain 2/NS1; conditions: read-out: Human Calpain 2/NS1 IC50
T1 sequence (P17655 1-700): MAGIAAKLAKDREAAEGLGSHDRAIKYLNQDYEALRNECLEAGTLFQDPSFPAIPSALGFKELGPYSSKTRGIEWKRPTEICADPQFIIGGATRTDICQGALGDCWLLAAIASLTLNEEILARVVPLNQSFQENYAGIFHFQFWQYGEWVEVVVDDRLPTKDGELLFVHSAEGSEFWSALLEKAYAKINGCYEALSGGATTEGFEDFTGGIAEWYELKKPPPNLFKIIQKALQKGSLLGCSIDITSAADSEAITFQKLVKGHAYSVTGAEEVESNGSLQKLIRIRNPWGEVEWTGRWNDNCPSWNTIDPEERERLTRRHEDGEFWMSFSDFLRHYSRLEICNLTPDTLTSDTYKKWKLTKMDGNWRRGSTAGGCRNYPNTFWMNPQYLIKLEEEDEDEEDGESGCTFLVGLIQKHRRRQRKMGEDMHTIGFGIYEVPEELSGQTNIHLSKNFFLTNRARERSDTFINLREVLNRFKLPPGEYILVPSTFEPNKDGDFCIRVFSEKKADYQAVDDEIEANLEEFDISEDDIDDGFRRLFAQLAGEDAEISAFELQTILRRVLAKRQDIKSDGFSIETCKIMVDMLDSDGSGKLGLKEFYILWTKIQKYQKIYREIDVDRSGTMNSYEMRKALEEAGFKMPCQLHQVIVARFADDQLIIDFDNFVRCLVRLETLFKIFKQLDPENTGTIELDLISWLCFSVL
T1 sequence (P04632 1-268 partner): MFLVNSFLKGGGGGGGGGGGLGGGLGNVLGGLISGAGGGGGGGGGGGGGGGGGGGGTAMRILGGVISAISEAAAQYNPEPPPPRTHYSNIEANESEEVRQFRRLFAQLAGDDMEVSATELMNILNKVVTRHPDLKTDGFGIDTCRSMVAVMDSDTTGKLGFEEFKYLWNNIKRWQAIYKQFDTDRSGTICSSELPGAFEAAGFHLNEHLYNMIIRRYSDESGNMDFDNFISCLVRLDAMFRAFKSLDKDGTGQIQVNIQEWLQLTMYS
Procedure: (§1) Calpain 1, 2, and 9 activity and inhibition thereof was assessed by means of a continuous fluorescence assay. The SensoLyte 520 Calpain substrate (Anaspec Inc) was optimized for detecting calpain activity. This substrate contains an internally quenched 5-FAM/QXL™ 520 FRET pair. Calpains 1, 2, and 9 cleave the FRET substrate into two separate fragments resulting in an increase of 5-FAM fluorescence that is proportional to calpain activity
(§2) Assays were typically setup in black 384-well plates using automated liquid handling as follows. Calpain assay base buffer typically contains 50 mM Tris, pH 7.5, 100 mM NaCl and 1 mM DTT. Inhibitors were serially diluted in DMSO and used to setup 2× mixtures with calpains in the aforementioned buffer. After incubation at ambient temperature (25C), the reaction was initiated by adding a 2× mix of the fluorescent peptide substrate and CaCl2) (required for in-situ calpain activation) in the same buffer. Reaction progress curve data were typically collected for 10 min using excitation/emission wavelengths of 490 nm/520 nm on SpectraMax i3× or the FLIPR-Tetra plate readers (Molecular Devices Inc). Reaction rates were calculated from progress curve slopes typically over 1-5 min. Dose response curves (rate vs. log inhibitor concentration) were typically fit to a 4-parameter logistic function to extract IC50 values.

Human Calpain 1/NS1 = target: T2, Human Calpain 1/NS1 (Homo sapiens, UniProt P07384); experiment: Calpain inhibition continuous fluorescence (FRET) assay, Human Calpain 1/NS1; conditions: read-out: Human Calpain 1/NS1 IC50
T2 sequence (P07384 1-714): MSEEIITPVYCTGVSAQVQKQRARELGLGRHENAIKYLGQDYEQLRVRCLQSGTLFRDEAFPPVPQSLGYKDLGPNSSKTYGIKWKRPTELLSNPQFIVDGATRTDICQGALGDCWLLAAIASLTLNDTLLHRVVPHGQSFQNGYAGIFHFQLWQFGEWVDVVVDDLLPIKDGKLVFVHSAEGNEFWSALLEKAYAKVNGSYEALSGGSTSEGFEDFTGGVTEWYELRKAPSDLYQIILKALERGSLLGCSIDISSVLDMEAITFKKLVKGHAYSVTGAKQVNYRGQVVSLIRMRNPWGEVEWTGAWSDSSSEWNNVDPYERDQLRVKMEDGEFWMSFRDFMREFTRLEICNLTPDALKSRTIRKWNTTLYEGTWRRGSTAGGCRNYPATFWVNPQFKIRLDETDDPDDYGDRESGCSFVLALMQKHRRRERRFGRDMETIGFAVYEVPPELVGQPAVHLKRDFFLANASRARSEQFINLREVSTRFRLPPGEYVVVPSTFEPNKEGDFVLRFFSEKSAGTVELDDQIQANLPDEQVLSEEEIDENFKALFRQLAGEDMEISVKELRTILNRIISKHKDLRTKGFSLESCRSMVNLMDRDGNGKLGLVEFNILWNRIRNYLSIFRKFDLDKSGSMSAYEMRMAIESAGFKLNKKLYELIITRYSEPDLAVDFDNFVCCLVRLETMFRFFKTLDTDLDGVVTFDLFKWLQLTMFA
T2 sequence (P04632 1-268 partner): T1 sequence (P04632 1-268 partner)
Procedure: as §1, §2

Human Calpain 9/NS1 = target: T3, Human Calpain 9/NS1 (Homo sapiens, UniProt O14815); experiment: Calpain inhibition continuous fluorescence (FRET) assay, Human Calpain 9/NS1; conditions: read-out: Human Calpain 9/NS1 IC50
T3 sequence (O14815 1-690): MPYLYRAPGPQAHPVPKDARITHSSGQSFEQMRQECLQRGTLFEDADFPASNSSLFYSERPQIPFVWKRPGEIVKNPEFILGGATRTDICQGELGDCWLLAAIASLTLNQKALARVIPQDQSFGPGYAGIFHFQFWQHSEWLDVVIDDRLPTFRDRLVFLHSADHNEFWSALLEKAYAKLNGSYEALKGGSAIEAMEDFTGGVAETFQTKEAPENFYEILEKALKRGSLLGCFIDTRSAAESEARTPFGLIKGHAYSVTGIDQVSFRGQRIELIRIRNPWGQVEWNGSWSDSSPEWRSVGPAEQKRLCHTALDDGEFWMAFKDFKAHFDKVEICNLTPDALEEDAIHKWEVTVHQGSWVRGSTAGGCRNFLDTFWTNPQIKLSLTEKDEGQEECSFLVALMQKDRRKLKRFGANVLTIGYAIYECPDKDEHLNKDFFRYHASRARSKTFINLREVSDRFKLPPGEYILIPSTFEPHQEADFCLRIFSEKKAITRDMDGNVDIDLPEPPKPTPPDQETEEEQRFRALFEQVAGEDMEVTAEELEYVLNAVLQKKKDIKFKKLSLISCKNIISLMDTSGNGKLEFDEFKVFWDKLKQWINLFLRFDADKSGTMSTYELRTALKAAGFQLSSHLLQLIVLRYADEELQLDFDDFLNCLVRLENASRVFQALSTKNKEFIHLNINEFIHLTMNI
T3 sequence (P04632 1-268 partner): T1 sequence (P04632 1-268 partner)
Procedure: as §1, §2

Compound	IC50 (Human Calpain 2/NS1; Column B) [µM]	IC50 (Human Calpain 1/NS1; Column A) [µM]	IC50 (Human Calpain 9/NS1; Column C) [µM]	IC50 (Human Calpain 2/NS1) [µM]	IC50 (Human Calpain 1/NS1) [µM]	IC50 (Human Calpain 9/NS1) [µM]
CC(C)(C)c1cc(C(=O)N[C@@H](Cc2ccccc2)C(=O)C(=O)NC2CC2)n(-c2ccccc2)n1 [Compound 137, (S)-3-(tert-butyl)-N-(4-(cyclopropylamino)-3,4-dioxo-1-phenylbutan-2-yl)-1-phenyl-1H-pyrazole-5-carboxamide]	> 10	> 10	> 10			
CC[C@@H](C)[C@H](NC(=O)c1c(C)noc1-c1ccccc1)C(=O)C(N)=O [Compound 73, N-((3S,4R)-1-amino-4-methyl-1,2-dioxohexan-3-yl)-3-methyl-5-phenylisoxazole-4-carboxamide]	< 3	< 3	> 10			
Cc1nsc(-c2ccccc2)c1C(=O)N[C@@H](Cc1ccccc1)C(=O)C(=O)NC1CC1 [Compound 116, (S)—N-(4-(cyclopropylamino)-3,4-dioxo-1-phenylbutan-2-yl)-3-methyl-5-phenylisothiazole-4-carboxamide]	3 to 10	< 3	> 10			
(S)—N-(4-amino-1-(3,5-dimethylphenyl)-3,4-dioxobutan-2-yl)-3-methyl-5-phenylisoxazole-4-carboxamide [Compound 98]	< 3	< 3	< 3			
Cn1nnc(C(=O)N[C@@H](Cc2ccccc2)C(=O)C(N)=O)c1-c1ccccc1 [Compound 260, (S)—N-(4-amino-3,4-dioxo-1-phenylbutan-2-yl)-1-methyl-5-phenyl-1H-1,2,3-triazole-4-carboxamide]	< 3	< 3	< 3			
Cc1nc(C(=O)N[C@@H](Cc2ccccc2)C(=O)C(N)=O)c(-c2ccccc2)s1 [Compound 54, (S)—N-(4-amino-3,4-dioxo-1-phenylbutan-2-yl)-2-methyl-5-phenylthiazole-4-carboxamide]	< 3	< 3	< 3			
Cc1cc(C(=O)NC(Cc2ccccc2)C(=O)C(N)=O)c(-c2nc3ccccc3[nH]2)s1 (stereo not drawn) [Compound 429, N-(4-amino-3,4-dioxo-1-phenylbutan-2-yl)-2-(1H-benzo[d]imidazol-2-yl)-5-methylthiophene-3-carboxamide]				< 3	< 3	< 3
Cn1cc(C(=O)NC(Cc2cccc(C(F)(F)F)c2)C(=O)C(N)=O)c(-c2ccccc2F)n1 (stereo not drawn) [Compound 623, N-(4-amino-3,4-dioxo-1-(3-(trifluoromethyl)phenyl)butan-2-yl)-3-(2-fluorophenyl)-1-methy 1-1H-pyrazole-4-carboxamide]				< 3	< 3	< 3
Cn1cc(C(=O)NC(Cc2ccccc2)C(=O)C(N)=O)c(C2CCCN(C(=O)OC(C)(C)C)C2)n1 (stereo not drawn) [Compound 624, Tert-Butyl 3-(4-((4-amino-3,4-dioxo-1-phenylbutan-2-yl)carbamoyl)-1-methyl-1H-pyrazol-3-yl)piperidine-1-carboxylate]				< 3	< 3	< 3
N-(4-amino-3,4-dioxo-1-phenylbutan-2-yl)-3-(isoquinolin-3-yl)-1-methyl-1H-pyrazole-4-carboxamide [Compound 629]				< 3	< 3	< 3
O=C[C@H](Cc1ccccc1)NC(=O)c1cccc2nc(-c3ccccc3)[nH]c12 [Compound 92, (S)—N-(1-oxo-3-phenylpropan-2-yl)-2-phenyl-1H-benzo[D]imidazole-7-carboxamide]	3 to 10	3 to 10	< 3			
Cc1ccccc1-c1c(C(=O)N[C@@H](Cc2ccccc2)C(=O)C(N)=O)cnn1C [Compound 190, (S)—N-(4-amino-3,4-dioxo-1-phenylbutan-2-yl)-1-methyl-5-(o-tolyl)-1H-pyrazole-4-carboxamide]	> 10	3 to 10	3 to 10			
NC(=O)C(=O)C(Cc1ccccc1)NC(=O)c1ccnn1Cc1ccccc1 (stereo not drawn) [Compound 283, N-(4-amino-3,4-dioxo-1-phenylbutan-2-yl)-1-benzyl-1H-pyrazole-5-carboxamide]	< 3	< 3	< 3			
Cc1nc(C(=O)N[C@@H](Cc2ccccc2)C(=O)C(N)=O)c(-c2ccccc2)[nH]1 [Compound 79, (S)—N-(4-amino-3,4-dioxo-1-phenylbutan-2-yl)-2-methyl-5-phenyl-1H-imidazole-4-carboxamide]	< 3	< 3	< 3			
CC(C)c1cc(C(=O)N[C@@H](Cc2ccccc2)C(=O)C(N)=O)n(-c2ccccc2)n1 [Compound 117, (S)—N-(4-amino-3,4-dioxo-1-phenylbutan-2-yl)-3-isopropyl-1-phenyl-1H-pyrazole-5-carboxamide]	3 to 10	3 to 10	3 to 10			
Cc1cc(C(=O)NC(Cc2ccccc2)C(=O)C(=O)NC2CC2)n(-c2ccncc2)n1 (stereo not drawn) [compound 210]	< 3	< 3	< 3			
O=C(NC1CC1)C(=O)[C@H](Cc1ccccc1)NC(=O)c1scnc1-n1cc(-c2ccccc2)cn1 [Compound 87, (S)—N-(4-(cyclopropylamino)-3,4-dioxo-1-phenylbutan-2-yl)-4-(4-phenyl-1H-pyrazol-1-yl)thiazole-5-carboxamide]	< 3	> 10	< 3			

— patent publication US11339130B1 (Blade Therapeutics, Inc., priority 2016, dated 2022)
